Data as given in the supplement of paper PMC7796163.
± gives the uncertainty stated by the source.

How the values were obtained:
Assay in all cases: CYP enzyme activity (probe substrate metabolite formation) fold change vs solvent control; higher = stronger induction of CYP activity
Conditions in all cases: HepaRG
CYP1A2 = molecular target: T1, CYP1A2 (UniProt P05177)
T1 sequence (whole entry): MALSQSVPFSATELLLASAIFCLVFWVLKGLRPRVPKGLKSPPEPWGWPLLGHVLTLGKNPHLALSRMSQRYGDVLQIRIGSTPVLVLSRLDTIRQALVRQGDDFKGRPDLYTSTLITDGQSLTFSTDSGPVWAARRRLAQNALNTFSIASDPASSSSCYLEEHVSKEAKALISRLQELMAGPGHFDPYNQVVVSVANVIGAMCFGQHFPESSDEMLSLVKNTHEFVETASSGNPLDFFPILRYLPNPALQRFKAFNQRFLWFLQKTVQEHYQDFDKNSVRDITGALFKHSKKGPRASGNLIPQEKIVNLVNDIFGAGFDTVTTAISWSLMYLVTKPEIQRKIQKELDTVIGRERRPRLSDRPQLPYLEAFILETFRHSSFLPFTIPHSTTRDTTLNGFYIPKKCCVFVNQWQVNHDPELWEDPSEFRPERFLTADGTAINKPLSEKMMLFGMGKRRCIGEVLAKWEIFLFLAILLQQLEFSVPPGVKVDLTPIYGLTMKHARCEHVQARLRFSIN
Method: (§1)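 Differentiated HepaRG cells were treated with 1, 5 or 10 µM of each PAH (0.5% DMSO) for 12, 24 or 48 h, then incubated for 3 h at 37 °C with a cocktail of isoform-specific CYP substrates (phenacetin for CYP1A2, bupropion for CYP2B6, amodiaquine for CYP2C8, tolbutamide for CYP2C9, mephenytoin for CYP2C19, propafenone for CYP2D6, atorvastatin for CYP3A4). Metabolite formation was quantified by LC-MS as a measure of CYP activity and reported as fold change over solvent control (mean ± SD, n=3). Values below the LLOQ were set to half the LLOQ.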

CYP2B6 = molecular target: T2, CYP2B6 (UniProt P20813)
T2 sequence (whole entry): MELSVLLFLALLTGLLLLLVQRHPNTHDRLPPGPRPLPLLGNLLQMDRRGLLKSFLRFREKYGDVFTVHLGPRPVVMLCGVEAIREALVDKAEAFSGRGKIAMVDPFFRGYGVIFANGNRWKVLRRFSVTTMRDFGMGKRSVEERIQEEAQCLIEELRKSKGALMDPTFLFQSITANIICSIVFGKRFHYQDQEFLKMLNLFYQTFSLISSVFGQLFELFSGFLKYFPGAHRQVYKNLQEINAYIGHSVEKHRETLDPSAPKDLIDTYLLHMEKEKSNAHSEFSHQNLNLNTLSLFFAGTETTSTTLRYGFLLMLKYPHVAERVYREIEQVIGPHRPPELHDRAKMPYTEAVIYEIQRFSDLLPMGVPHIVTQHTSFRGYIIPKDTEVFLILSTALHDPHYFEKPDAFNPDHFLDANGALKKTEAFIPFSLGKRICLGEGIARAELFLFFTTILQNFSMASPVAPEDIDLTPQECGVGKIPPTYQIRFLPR
Method: as §1

CYP2C19 = CYP2C19 (UniProt P33261)
CYP2C19, sequence (P33261 whole entry): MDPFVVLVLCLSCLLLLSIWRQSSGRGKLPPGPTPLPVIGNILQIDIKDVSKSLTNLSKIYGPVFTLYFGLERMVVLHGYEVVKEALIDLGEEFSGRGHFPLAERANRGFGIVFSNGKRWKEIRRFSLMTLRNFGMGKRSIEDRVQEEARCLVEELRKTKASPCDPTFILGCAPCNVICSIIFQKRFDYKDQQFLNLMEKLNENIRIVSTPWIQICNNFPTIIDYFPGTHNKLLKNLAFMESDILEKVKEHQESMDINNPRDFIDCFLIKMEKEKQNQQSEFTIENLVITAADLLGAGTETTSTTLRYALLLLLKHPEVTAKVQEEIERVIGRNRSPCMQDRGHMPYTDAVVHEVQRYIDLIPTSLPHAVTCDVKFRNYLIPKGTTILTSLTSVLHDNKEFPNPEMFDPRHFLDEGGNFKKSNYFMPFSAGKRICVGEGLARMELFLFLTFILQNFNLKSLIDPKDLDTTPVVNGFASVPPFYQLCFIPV
Method: as §1

CYP2C8 = molecular target: T3, CYP2C8 (UniProt P10632)
T3 sequence (whole entry): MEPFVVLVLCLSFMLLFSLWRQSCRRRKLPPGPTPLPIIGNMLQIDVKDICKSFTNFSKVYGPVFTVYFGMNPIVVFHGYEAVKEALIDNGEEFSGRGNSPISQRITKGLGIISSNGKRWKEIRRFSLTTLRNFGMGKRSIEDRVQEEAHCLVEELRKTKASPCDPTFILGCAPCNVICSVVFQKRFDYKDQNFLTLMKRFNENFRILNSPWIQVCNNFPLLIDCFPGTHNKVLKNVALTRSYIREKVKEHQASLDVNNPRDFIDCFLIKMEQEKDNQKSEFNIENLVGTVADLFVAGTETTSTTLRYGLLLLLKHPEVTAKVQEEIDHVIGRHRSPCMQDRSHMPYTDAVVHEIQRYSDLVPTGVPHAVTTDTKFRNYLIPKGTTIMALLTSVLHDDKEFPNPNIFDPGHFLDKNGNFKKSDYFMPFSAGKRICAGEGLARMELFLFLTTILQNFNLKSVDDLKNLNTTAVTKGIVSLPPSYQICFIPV
Method: as §1

CYP2C9 = CYP2C9 (UniProt P11712)
CYP2C9, sequence (P11712 whole entry): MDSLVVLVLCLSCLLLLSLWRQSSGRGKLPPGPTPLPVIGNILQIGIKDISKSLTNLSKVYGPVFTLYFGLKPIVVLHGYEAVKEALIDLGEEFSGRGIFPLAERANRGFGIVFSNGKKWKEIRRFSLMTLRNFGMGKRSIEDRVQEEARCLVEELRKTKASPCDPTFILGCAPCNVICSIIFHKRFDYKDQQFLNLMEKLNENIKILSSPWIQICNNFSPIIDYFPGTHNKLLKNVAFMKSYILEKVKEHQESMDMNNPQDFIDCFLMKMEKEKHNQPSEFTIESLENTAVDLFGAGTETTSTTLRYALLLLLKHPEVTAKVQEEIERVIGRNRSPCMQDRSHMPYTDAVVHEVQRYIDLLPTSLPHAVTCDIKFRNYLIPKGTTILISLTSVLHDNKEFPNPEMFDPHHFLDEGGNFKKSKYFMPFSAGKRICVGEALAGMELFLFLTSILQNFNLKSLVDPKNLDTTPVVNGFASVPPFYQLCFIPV
Method: as §1

CYP2D6 = CYP2D6 (UniProt P10635)
CYP2D6, sequence (P10635 whole entry): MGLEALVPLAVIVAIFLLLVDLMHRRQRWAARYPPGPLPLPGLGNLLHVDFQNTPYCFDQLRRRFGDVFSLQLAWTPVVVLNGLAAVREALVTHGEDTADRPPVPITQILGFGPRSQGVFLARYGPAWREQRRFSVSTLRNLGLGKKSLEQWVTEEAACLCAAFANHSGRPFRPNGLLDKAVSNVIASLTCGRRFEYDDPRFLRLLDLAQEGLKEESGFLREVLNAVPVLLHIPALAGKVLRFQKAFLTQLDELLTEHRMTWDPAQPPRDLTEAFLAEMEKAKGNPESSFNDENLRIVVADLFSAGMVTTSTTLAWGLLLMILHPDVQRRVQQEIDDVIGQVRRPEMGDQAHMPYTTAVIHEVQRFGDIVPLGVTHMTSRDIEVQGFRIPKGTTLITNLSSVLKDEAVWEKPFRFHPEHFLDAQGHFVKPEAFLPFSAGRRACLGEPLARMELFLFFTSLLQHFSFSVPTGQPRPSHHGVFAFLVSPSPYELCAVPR
Method: as §1

CYP3A4 = CYP3A4 (UniProt P08684)
CYP3A4, sequence (P08684 whole entry): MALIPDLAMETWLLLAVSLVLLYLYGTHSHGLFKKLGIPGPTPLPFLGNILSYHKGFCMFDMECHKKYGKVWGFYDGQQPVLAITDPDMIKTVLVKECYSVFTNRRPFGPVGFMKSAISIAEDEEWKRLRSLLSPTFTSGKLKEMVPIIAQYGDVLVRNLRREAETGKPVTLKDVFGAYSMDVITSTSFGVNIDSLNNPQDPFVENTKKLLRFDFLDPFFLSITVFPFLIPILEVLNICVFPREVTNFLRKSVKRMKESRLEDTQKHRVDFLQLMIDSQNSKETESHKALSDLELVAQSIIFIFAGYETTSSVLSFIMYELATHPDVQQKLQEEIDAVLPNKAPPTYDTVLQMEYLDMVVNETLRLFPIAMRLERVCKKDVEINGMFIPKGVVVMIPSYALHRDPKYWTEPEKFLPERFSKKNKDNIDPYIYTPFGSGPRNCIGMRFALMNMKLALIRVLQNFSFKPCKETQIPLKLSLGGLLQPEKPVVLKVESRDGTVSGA
Method: as §1

c1cc2ccc3cccc4ccc(c1)c2c34 [pyrene]
CYP enzyme activity
Conditions | CYP1A2 | CYP2B6 | CYP2C8 | CYP2C9 | CYP2C19 | CYP2D6 | CYP3A4
1 µM, treatment time 12 h | 1.18 ± 0.059 | 1.1 ± 0.033 | 1.01 ± 0.065 | 0.925 ± 0.084 | 0.893 ± 0.023 | 0.973 ± 0.035 | 0.912 ± 0.074
1 µM, treatment time 24 h | 1.15 ± 0.12 | 1.42 ± 0.17 | 1.04 ± 0.12 | 1.07 ± 0.12 | 1.04 ± 0.11 | 0.894 ± 0.081 | 0.91 ± 0.13
1 µM, treatment time 48 h | 1.07 ± 0.093 | 1.3 ± 0.22 | 1.07 ± 0.018 | 1.18 ± 0.1 | 1.16 ± 0.091 | 0.996 ± 0.16 | 0.931 ± 0.022
5 µM, treatment time 12 h | 1.32 ± 0.23 | 1.41 ± 0.27 | 0.921 ± 0.059 | 0.982 ± 0.065 | 1.06 ± 0.1 | 1.07 ± 0.14 | 0.987 ± 0.08
5 µM, treatment time 24 h | 1.42 ± 0.23 | 2.27 ± 0.43 | 1.07 ± 0.038 | 1.08 ± 0.086 | 1.06 ± 0.1 | 1.04 ± 0.12 | 1.01 ± 0.13
5 µM, treatment time 48 h | 1.28 ± 0.13 | 2.75 ± 0.2 | 1.1 ± 0.045 | 1.14 ± 0.018 | 1.15 ± 0.041 | 0.942 ± 0.12 | 1.07 ± 0.043
10 µM, treatment time 12 h | 1.31 ± 0.2 | 1.33 ± 0.13 | 0.924 ± 0.035 | 0.914 ± 0.081 | 1.02 ± 0.072 | 1.11 ± 0.099 | 0.916 ± 0.071
10 µM, treatment time 24 h | 1.57 ± 0.27 | 2.4 ± 0.56 | 1.14 ± 0.061 | 1.08 ± 0.12 | 1.18 ± 0.087 | 1.2 ± 0.089 | 1.21 ± 0.089
10 µM, treatment time 48 h | 1.52 ± 0.15 | 3.6 ± 0.35 | 1.15 ± 0.093 | 1.45 ± 0.22 | 1.3 ± 0.18 | 1.12 ± 0.15 | 1.32 ± 0.12
